According to patent US12435044B2, “Pyridazinone herbicides and pyridazinone intermediates used to prepare a herbicide” (FMC Corporation, priority 2018, dated 2025):

Experiments:
Format in all cases: in vivo
[1] = system: soybean (GLXMA; Glycine max, cv. Pioneer 35T58); assay: Test J pre-/postemergence, mixtures of Cpd. No. 20 with (b15C2)
From the text: (§1) This test evaluated the effect of mixtures of Cpd. No. 20 with (b15C2) on several plant species. Seeds of plant species selected from corn (ZEAMD; Zea mays, cv. ‘Pioneer 1184’), soybean (GLXMA; Glycine max, cv. Pioneer 35T58), giant foxtail (SETFA; Setaria faberi), palmer amaranth (AMAPA; Amaranthus palmeri), common waterhemp (AMATU; Amaranthus rudis), mare's tail (ERICA; Conyza canadensis), and common ragweed (AMBEL; Ambrosia artemisiifolia) were planted in pots containing Tama Silt Loam soil and treated preemergence with a directed soil spray using test chemicals formulated in a non-phytotoxic solvent mixture which included a surfactant.
(§2) At the same time, plants selected from these crop and weed species were planted in pots containing Redi-Earth® planting medium (Scotts Company, 14111 Scottslawn Road, Marysville, Ohio 43041) comprising spaghnum peat moss, vermiculite, wetting agent and starter nutrients and treated postemergence with test chemicals formulated in the same manner. Plants ranged in height from 2 to 10 cm and were in the one- to two-leaf stage for the postemergence treatment. Treated plants and untreated controls were maintained in a greenhouse for approximately 14-21 d, after which time all treated plants were compared to untreated controls and visually evaluated for injury. Plant response ratings, summarized in Tables J1 & J2, are based on a 0 to 100 scale where 0 is no effect and 100 is complete control. A dash (-) response means no test result. Test results are presented as a mean of 4 reps.

[2] = system: palmer amaranth (AMAPA; Amaranthus palmeri); assay: as above
From the text: as §1, §2

[3] = system: common ragweed (AMBEL; Ambrosia artemisiifolia); assay: as above
From the text: as §1, §2

[4] = system: mare's tail (ERICA; Conyza canadensis); assay: as above
From the text: as §1, §2

[5] = system: corn (ZEAMD; Zea mays, cv. ‘Pioneer 1184’); assay: as above
From the text: as §1, §2

[6] = system: common waterhemp (AMATU; Amaranthus rudis); assay: as above
From the text: as §1, §2

[7] = system: giant foxtail (SETFA; Setaria faberi); assay: as above
From the text: as §1, §2

[8] = system: soybean (GLXMA; Glycine max, cv. Pioneer 35T58); assay: Test of Tables L1 to L3, postemergence, mixtures of Cpd. No. 20 with benoxacor, isoxadifen-ethyl, or cloquintocet-mexyl; settings: 31 g a.i./ha
From the text: (§3) This test evaluated the effect of mixtures of Cpd. No. 20 with benoxacor, isoxadifen-ethyl, or cloquintocet-mexyl on several plant species. Seeds of plant species selected from corn (ZEAMD; Zea mays, cv. ‘Pioneer 1184’), soybean (GLXMA; Glycine max, cv. Pioneer 35T58), winter wheat (TRZAW; Triticum aetivum, cv. Arezzo), rice (ORYSS; Oryza sativa, cv. M202), and giant foxtail (SETFA; Setaria faberi) were planted in pots containing Redi-Earth® planting medium (Scotts Company, 14111 Scottslawn Road, Marysville, Ohio 43041) comprising spaghnum peat moss, vermiculite, wetting agent and starter nutrients and treated postemergence using test chemicals formulated in a non-phytotoxic solvent mixture which included a surfactant. Plants ranged in height from 7 to 10 cm and were in the one- to two-leaf stage for the postemergence treatment. Treated plants and untreated controls were maintained in a greenhouse for approximately 14 d, after which time all treated plants were compared to untreated controls and visually evaluated for injury. Plant response ratings, summarized in Tables L1 to L3, are based on a 0 to 100 scale where 0 is no effect and 100 is complete control. A dash (-) response means no test result. Test results are presented as a mean of 4 reps.

[9] = system: rice (ORYSS; Oryza sativa, cv. M202); assay: as above; settings: 31 g a.i./ha
From the text: as §3

[10] = system: winter wheat (TRZAW; Triticum aetivum, cv. Arezzo); assay: as above; settings: 31 g a.i./ha
From the text: as §3

[11] = system: corn (ZEAMD; Zea mays, cv. ‘Pioneer 1184’); assay: as above; settings: 31 g a.i./ha
From the text: as §3

[12] = system: giant foxtail (SETFA; Setaria faberi); assay: as above; settings: 31 g a.i./ha
From the text: as §3

O=C(CCC(F)(F)F)c1c(Cl)cccc1Oc1ncc(Cl)cn1 [(b15C2), 1-[2-chloro-6-[(5-chloro-2-pyrimidinyl)oxy]phenyl]-4,4,4-trifluoro-1-butanone, reference compound]
GLXMA plant response rating, 0 to 100 scale ([1]; postemergence, 8 g a.i./ha): 20
GLXMA plant response rating, 0 to 100 scale ([1]; postemergence, 16 g a.i./ha): 29
GLXMA plant response rating, 0 to 100 scale ([1]; postemergence, 31 g a.i./ha): 43
GLXMA plant response rating, 0 to 100 scale ([1]; postemergence, 62 g a.i./ha): 68
GLXMA plant response rating, 0 to 100 scale ([1]; preemergence, 8 g a.i./ha): 0
GLXMA plant response rating, 0 to 100 scale ([1]; preemergence, 16 g a.i./ha): 0
GLXMA plant response rating, 0 to 100 scale ([1]; preemergence, 31 g a.i./ha): 0
GLXMA plant response rating, 0 to 100 scale ([1]; preemergence, 62 g a.i./ha): 0
AMAPA plant response rating, 0 to 100 scale ([2]; postemergence, 8 g a.i./ha): 20
AMAPA plant response rating, 0 to 100 scale ([2]; postemergence, 16 g a.i./ha): 38
AMAPA plant response rating, 0 to 100 scale ([2]; postemergence, 31 g a.i./ha): 56
AMAPA plant response rating, 0 to 100 scale ([2]; postemergence, 62 g a.i./ha): 74
AMAPA plant response rating, 0 to 100 scale ([2]; preemergence, 8 g a.i./ha): 63
AMAPA plant response rating, 0 to 100 scale ([2]; preemergence, 16 g a.i./ha): 90
AMAPA plant response rating, 0 to 100 scale ([2]; preemergence, 31 g a.i./ha): 100
AMAPA plant response rating, 0 to 100 scale ([2]; preemergence, 62 g a.i./ha): 100
AMBEL plant response rating, 0 to 100 scale ([3]; postemergence, 8 g a.i./ha): 5
AMBEL plant response rating, 0 to 100 scale ([3]; postemergence, 16 g a.i./ha): 3
AMBEL plant response rating, 0 to 100 scale ([3]; postemergence, 31 g a.i./ha): 10
AMBEL plant response rating, 0 to 100 scale ([3]; postemergence, 62 g a.i./ha): 20
AMBEL plant response rating, 0 to 100 scale ([3]; preemergence, 8 g a.i./ha): 0
AMBEL plant response rating, 0 to 100 scale ([3]; preemergence, 16 g a.i./ha): 0
AMBEL plant response rating, 0 to 100 scale ([3]; preemergence, 31 g a.i./ha): 0
AMBEL plant response rating, 0 to 100 scale ([3]; preemergence, 62 g a.i./ha): 15
ERICA plant response rating, 0 to 100 scale ([4]; postemergence, 8 g a.i./ha): 0
ERICA plant response rating, 0 to 100 scale ([4]; postemergence, 16 g a.i./ha): 0
ERICA plant response rating, 0 to 100 scale ([4]; postemergence, 31 g a.i./ha): 0
ERICA plant response rating, 0 to 100 scale ([4]; postemergence, 62 g a.i./ha): 5
ERICA plant response rating, 0 to 100 scale ([4]; preemergence, 8 g a.i./ha): 0
ERICA plant response rating, 0 to 100 scale ([4]; preemergence, 16 g a.i./ha): 0
ERICA plant response rating, 0 to 100 scale ([4]; preemergence, 31 g a.i./ha): 0
ERICA plant response rating, 0 to 100 scale ([4]; preemergence, 62 g a.i./ha): 13
ZEAMD plant response rating, 0 to 100 scale ([5]; postemergence, 8 g a.i./ha): 3
ZEAMD plant response rating, 0 to 100 scale ([5]; postemergence, 16 g a.i./ha): 5
ZEAMD plant response rating, 0 to 100 scale ([5]; postemergence, 31 g a.i./ha): 9
ZEAMD plant response rating, 0 to 100 scale ([5]; postemergence, 62 g a.i./ha): 10
ZEAMD plant response rating, 0 to 100 scale ([5]; preemergence, 8 g a.i./ha): 0
ZEAMD plant response rating, 0 to 100 scale ([5]; preemergence, 16 g a.i./ha): 0
ZEAMD plant response rating, 0 to 100 scale ([5]; preemergence, 31 g a.i./ha): 0
ZEAMD plant response rating, 0 to 100 scale ([5]; preemergence, 62 g a.i./ha): 0
AMATU plant response rating, 0 to 100 scale ([6]; postemergence, 8 g a.i./ha): 43
AMATU plant response rating, 0 to 100 scale ([6]; postemergence, 16 g a.i./ha): 55
AMATU plant response rating, 0 to 100 scale ([6]; postemergence, 31 g a.i./ha): 75
AMATU plant response rating, 0 to 100 scale ([6]; postemergence, 62 g a.i./ha): 83
AMATU plant response rating, 0 to 100 scale ([6]; preemergence, 8 g a.i./ha): 20
AMATU plant response rating, 0 to 100 scale ([6]; preemergence, 16 g a.i./ha): 79
AMATU plant response rating, 0 to 100 scale ([6]; preemergence, 31 g a.i./ha): 100
AMATU plant response rating, 0 to 100 scale ([6]; preemergence, 62 g a.i./ha): 100
SETFA plant response rating, 0 to 100 scale ([7]; postemergence, 8 g a.i./ha): 5
SETFA plant response rating, 0 to 100 scale ([7]; postemergence, 16 g a.i./ha): 5
SETFA plant response rating, 0 to 100 scale ([7]; postemergence, 31 g a.i./ha): 8
SETFA plant response rating, 0 to 100 scale ([7]; postemergence, 62 g a.i./ha): 6
SETFA plant response rating, 0 to 100 scale ([7]; preemergence, 8 g a.i./ha): 8
SETFA plant response rating, 0 to 100 scale ([7]; preemergence, 16 g a.i./ha): 64
SETFA plant response rating, 0 to 100 scale ([7]; preemergence, 31 g a.i./ha): 95
SETFA plant response rating, 0 to 100 scale ([7]; preemergence, 62 g a.i./ha): 100

CC1COc2ccccc2N1C(=O)C(Cl)Cl (stereo not shown) [Benoxacor, benoxacor, reference compound]
GLXMA plant response rating, 0 to 100 scale [8]: 0
ORYSS plant response rating, 0 to 100 scale [9]: 0
TRZAW plant response rating, 0 to 100 scale [10]: 0
ZEAMD plant response rating, 0 to 100 scale [11]: 0
SETFA plant response rating, 0 to 100 scale [12]: 0
